Test system: mice
Experiment: Formalin paw test in mice
Assay type: in vivo
Conditions: Mus musculus, intravenous, 5 min before 5% formalin s.c. into hind paw, Phase 2 = 20-30 min after formalin, read-out: ED50, inhibition of nociceptive behaviour of Phase 2
Procedure: Formalin Paw Test In Mice
Four-six groups of six mice were treated with vehicle and one of four to five doses of the test compound (typically between 0.03, 0.1, 3 and 10 μmol/kg), administered intravenously into the tail vein (vehicle: 10% Tween-80 in saline; injection volume 10 ml/kg). This injection was followed 5 minutes later by 20 μl of 5% formalin, which was administered sub-cutaneously to the dorsum of the left hind paw. Immediately after formalin administration the animal was placed in a test chamber and data acquisition, using a detection device (Automated Nociception Analyser (ANA); Department of Anesthesiology, University of California, San Diego), was started, independently for each chamber. The nociceptive behaviour was measured as the number of counts (licking, lifting, biting and flinching actions) detected within the two phases of nociception (Yaksh et al, 2001). The nociceptive behaviour between 0 and 5 min after formalin injection (Phase 1) and between 20 and 30 min after formalin injection (Phase 2) was recorded and number of counts for each mouse, compared to the mean number of counts for the vehicle treated animals, was calculated. Once values for each mouse were obtained, the mean and s.e.m. were calculated for each treatment group. The percent inhibition data were then used to calculate ED50 values for Phase 1 and Phase 2.

| SMILES | ED50 [µmol/kg] |
| --- | --- |
| O=C(NCCO)C1CCN(Cc2nc(-c3cn(CC4CCOCC4)c4c(Cl)cccc34)no2)CC1 [Example 19] | < 5 |
| CN(CC(N)=O)Cc1nc(-c2cn(CC3CCOCC3)c3c(Cl)cccc23)no1 [Example 20, 7-Chloro-3-[(5-{[N-(carboxamido)methyl]-N-methylamino}methyl)-([1,2,4]oxadiazol-3-yl)]-1-(tetrahydropyran-4-yl)methyl-1H-indole] | < 5 |
| CS(=O)(=O)N(CCO)Cc1nc(-c2cn(CC3CCOCC3)c3c(Cl)cccc23)ns1 [Example 15, 7-Chloro-3-({5-[(N-{2-hydroxy}ethyl)-(N-{methylsulfonyl})amino]methyl}-([1,2,4]-thiadiazol-3-yl))-1-(tetrahydropyran-4-yl)methyl-1H-indole] | < 5 |
| CCc1cccc2c(-c3nsc(CN4CCC(C(=O)NCCO)CC4)n3)cn(CC3CCOCC3)c12 [Example 10A, 7-Ethyl-3-[(5-{4-[(N-{2-hydroxy}ethyl)carboxamido]piperidin-1-yl}methyl)-(1,2,4]-thiadiazol-3-yl)-1-(tetrahydropyran-4-yl)methyl-1H-indole] | < 5 |
